Laboratory results taken from ChEMBL document CHEMBL1139487, “Discovery of corticotropin releasing factor 2 receptor selective sauvagine analogues for treatment of skeletal muscle atrophy” (J Med Chem, 2005).

Assays:
[1] = target: Corticotropin-releasing factor receptor 2 (Mus musculus, UniProt Q60748); assay: In vitro effective concentration for mouse corticotropin releasing factor 2 receptor
[2] = target: T1, Corticotropin-releasing factor receptor 1 (Mus musculus) (UniProt P35347); assay: In vitro agonistic activity against mouse corticotropin releasing factor 1 receptor; type: functional
T1 sequence (whole entry): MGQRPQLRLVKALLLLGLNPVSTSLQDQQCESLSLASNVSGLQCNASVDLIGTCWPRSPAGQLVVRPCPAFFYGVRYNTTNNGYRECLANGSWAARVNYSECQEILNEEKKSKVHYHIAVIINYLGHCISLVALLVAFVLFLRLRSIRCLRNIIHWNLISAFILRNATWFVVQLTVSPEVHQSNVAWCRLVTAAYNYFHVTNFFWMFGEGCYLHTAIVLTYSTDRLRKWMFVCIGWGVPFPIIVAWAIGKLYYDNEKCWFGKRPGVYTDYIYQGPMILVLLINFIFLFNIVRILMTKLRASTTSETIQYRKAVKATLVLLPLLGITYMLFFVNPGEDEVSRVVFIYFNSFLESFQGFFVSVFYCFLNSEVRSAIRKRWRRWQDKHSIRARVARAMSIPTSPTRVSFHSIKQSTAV

[3] = species: Mus musculus; assay: Selectivity ratio of EC50s for mouse corticotropin releasing factor receptors 1 and 2
[4] = target: T2, Corticotropin-releasing factor receptor 1 (Mus musculus, UniProt P35347); assay: In vitro effective concentration for mouse corticotropin releasing factor 1 receptor
T2 sequence (P35347 whole entry): T1 sequence (whole entry)

[5] = target: Corticotropin-releasing factor receptor 2 (Mus musculus) (UniProt Q60748); assay: In vitro agonistic activity against mouse corticotropin releasing factor 2 receptor; type: functional
Sequence of Corticotropin-releasing factor receptor 2 (Mus musculus) (Q60748 whole entry): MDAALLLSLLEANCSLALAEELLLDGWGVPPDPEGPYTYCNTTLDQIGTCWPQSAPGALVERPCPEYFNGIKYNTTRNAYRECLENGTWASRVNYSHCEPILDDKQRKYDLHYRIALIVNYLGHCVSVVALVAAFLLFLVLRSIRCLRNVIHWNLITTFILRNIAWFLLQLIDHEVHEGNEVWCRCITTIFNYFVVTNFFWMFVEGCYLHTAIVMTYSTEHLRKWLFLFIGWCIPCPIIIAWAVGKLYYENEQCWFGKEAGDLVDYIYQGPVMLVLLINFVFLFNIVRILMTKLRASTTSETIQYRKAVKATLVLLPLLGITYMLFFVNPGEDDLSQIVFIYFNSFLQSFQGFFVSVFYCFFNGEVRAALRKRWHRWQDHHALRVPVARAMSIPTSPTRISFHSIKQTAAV

Sequence of Corticotropin-releasing factor receptor 2 (Q60748 whole entry): as above

SMILES | EC50 [1] [µM] | Emax [2] [%] | Selectivity [3] | EC50 [4] [µM] | Emax [5] [%]
CC[C@H](C)[C@H](NC(=O)[C@@H](NC(=O)[C@H](CC(=O)O)NC(=O)[C@H](CC(C)C)NC(=O)[C@H](CC(C)C)NC(=O)[C@H](CC(C)C)NC(=O)[C@H](CCCN=C(N)N)NC(=O)[C@H](CC(N)=O)NC(=O)[C@H](CC(N)=O)NC(=O)[C@H](C)NC(=O)[C@H](C)NC(=O)[C@H](CCC(N)=O)NC(=O)[C@H](CCC(N)=O)NC(=O)[C@H](CCCCN)NC(=O)[C@H](CCC(=O)O)NC(=O)[C@H](CCCCN)NC(=O)[C@H](CCC(=O)O)NC(=O)[C@H](CCC(N)=O)NC(=O)[C@H](CCCCN)NC(=O)[C@H](CCC(=O)O)NC(=O)[C@@H](NC(=O)[C@H](CCC(=O)O)NC(=O)[C@@H](NC(=O)[C@H](CCSC)NC(=O)[C@H](CCCCN)NC(=O)[C@H](CCCN=C(N)N)NC(=O)[C@H](CC(C)C)NC(=O)[C@H](CC(C)C)NC(=O)[C@@H](NC(=O)[C@@H](NC(=O)[C@@H]1CCCN1C(=O)[C@H](CC(C)C)NC(=O)[C@H](CC(=O)O)NC(=O)[C@@H](NC(=O)[C@H](CO)NC(=O)[C@@H](NC(=O)[C@@H]1CCCN1C(=O)[C@@H]1CCCN1C(=O)CNC(=O)[C@@H]1CCC(=O)N1)[C@@H](C)CC)[C@@H](C)CC)[C@@H](C)CC)[C@@H](C)CC)[C@@H](C)CC)[C@@H](C)CC)[C@@H](C)O)C(=O)O | 0.0148 | 4 | > 68 | > 1 | 73
CC[C@H](C)[C@H](NC(=O)[C@@H](NC(=O)[C@H](CC(=O)O)NC(=O)[C@H](CC(C)C)NC(=O)[C@H](CC(C)C)NC(=O)[C@H](CC(C)C)NC(=O)[C@H](CCCN=C(N)N)NC(=O)[C@H](CC(N)=O)NC(=O)[C@H](CC(N)=O)NC(=O)[C@H](C)NC(=O)[C@H](C)NC(=O)[C@H](CCC(N)=O)NC(=O)[C@H](CCC(N)=O)NC(=O)[C@H](CCCCN)NC(=O)[C@H](CCC(=O)O)NC(=O)[C@H](CCCCN)NC(=O)[C@H](CCC(=O)O)NC(=O)[C@H](CCC(N)=O)NC(=O)[C@H](CCCCN)NC(=O)[C@H](CCC(=O)O)NC(=O)[C@@H](NC(=O)[C@H](CCC(=O)O)NC(=O)[C@@H](NC(=O)[C@H](CCSC)NC(=O)[C@H](CCCCN)NC(=O)[C@H](CCCN=C(N)N)NC(=O)[C@H](CC(C)C)NC(=O)[C@H](CC(C)C)NC(=O)[C@H](Cc1c[nH]cn1)NC(=O)[C@H](CC(C)C)NC(=O)[C@@H]1CCCN1C(=O)[C@H](CC(C)C)NC(=O)[C@H](CC(=O)O)NC(=O)[C@@H](NC(=O)[C@H](CO)NC(=O)[C@@H](NC(=O)[C@@H]1CCCN1C(=O)[C@@H]1CCCN1C(=O)CNC(=O)[C@@H]1CCC(=O)N1)[C@@H](C)CC)[C@@H](C)CC)[C@@H](C)CC)[C@@H](C)CC)[C@@H](C)O)C(=O)O | 0.0019 | 96 | 28 | 0.0522 | 81
CC[C@H](C)[C@H](NC(=O)[C@@H](NC(=O)[C@H](CC(=O)O)NC(=O)[C@H](CC(C)C)NC(=O)[C@H](CC(C)C)NC(=O)[C@H](CC(C)C)NC(=O)[C@H](CCCN=C(N)N)NC(=O)[C@H](CC(N)=O)NC(=O)[C@H](CC(N)=O)NC(=O)[C@H](C)NC(=O)[C@H](C)NC(=O)[C@H](CCC(N)=O)NC(=O)[C@H](CCC(N)=O)NC(=O)[C@H](CCCCN)NC(=O)[C@H](CCC(=O)O)NC(=O)[C@H](CCCCN)NC(=O)[C@H](CCC(=O)O)NC(=O)[C@H](CCC(N)=O)NC(=O)[C@H](CCCCN)NC(=O)[C@H](CCC(=O)O)NC(=O)[C@@H](NC(=O)[C@H](CCC(=O)O)NC(=O)[C@@H](NC(=O)[C@H](CCSC)NC(=O)[C@H](CCCCN)NC(=O)[C@H](CCCN=C(N)N)NC(=O)[C@H](CC(C)C)NC(=O)[C@H](CC(C)C)NC(=O)[C@H](Cc1c[nH]cn1)NC(=O)[C@H](Cc1ccc(O)cc1)NC(=O)[C@@H]1CCCN1C(=O)[C@H](CC(C)C)NC(=O)[C@H](CC(=O)O)NC(=O)[C@@H](NC(=O)[C@H](CO)NC(=O)[C@@H](NC(=O)[C@@H]1CCCN1C(=O)[C@@H]1CCCN1C(=O)CNC(=O)[C@@H]1CCC(=O)N1)[C@@H](C)CC)[C@@H](C)CC)[C@@H](C)CC)[C@@H](C)CC)[C@@H](C)O)C(=O)O | 0.0056 | 81 | 13 | 0.0649 | 88
CC[C@H](C)[C@H](NC(=O)[C@@H](NC(=O)[C@H](CC(=O)O)NC(=O)[C@H](CC(C)C)NC(=O)[C@H](CC(C)C)NC(=O)[C@H](CC(C)C)NC(=O)[C@H](CCCN=C(N)N)NC(=O)[C@H](CC(N)=O)NC(=O)[C@H](CC(N)=O)NC(=O)[C@H](C)NC(=O)[C@H](C)NC(=O)[C@H](CCC(N)=O)NC(=O)[C@H](CCC(N)=O)NC(=O)[C@H](CCCCN)NC(=O)[C@H](CCC(=O)O)NC(=O)[C@H](CCCCN)NC(=O)[C@H](CCC(=O)O)NC(=O)[C@H](CCC(N)=O)NC(=O)[C@H](CCCCN)NC(=O)[C@H](CCC(=O)O)NC(=O)[C@@H](NC(=O)[C@H](CCC(=O)O)NC(=O)[C@@H](NC(=O)[C@H](CCSC)NC(=O)[C@H](CCCCN)NC(=O)[C@H](CCCN=C(N)N)NC(=O)[C@H](CC(C)C)NC(=O)[C@H](CC(C)C)NC(=O)[C@H](Cc1ccccc1)NC(=O)[C@H](Cc1ccccc1)NC(=O)[C@@H]1CCCN1C(=O)[C@H](CC(C)C)NC(=O)[C@H](CC(=O)O)NC(=O)[C@@H](NC(=O)[C@H](CO)NC(=O)[C@@H](NC(=O)[C@@H]1CCCN1C(=O)[C@@H]1CCCN1C(=O)CNC(=O)[C@@H]1CCC(=O)N1)[C@@H](C)CC)[C@@H](C)CC)[C@@H](C)CC)[C@@H](C)CC)[C@@H](C)O)C(=O)O | 0.003 | 81 | 16 | 0.0481 | 92
CC[C@H](C)[C@H](NC(=O)[C@@H](NC(=O)[C@H](CC(=O)O)NC(=O)[C@H](CC(C)C)NC(=O)[C@H](CC(C)C)NC(=O)[C@H](CC(C)C)NC(=O)[C@H](CCCN=C(N)N)NC(=O)[C@H](CC(N)=O)NC(=O)[C@H](CC(N)=O)NC(=O)[C@H](C)NC(=O)[C@H](C)NC(=O)[C@H](CCC(N)=O)NC(=O)[C@H](CCC(N)=O)NC(=O)[C@H](CCCCN)NC(=O)[C@H](CCC(=O)O)NC(=O)[C@H](CCCCN)NC(=O)[C@H](CCC(=O)O)NC(=O)[C@H](CCC(N)=O)NC(=O)[C@H](CCCCN)NC(=O)[C@H](CCC(=O)O)NC(=O)[C@@H](NC(=O)[C@H](CCC(=O)O)NC(=O)[C@@H](NC(=O)[C@H](CCSC)NC(=O)[C@H](CCCCN)NC(=O)[C@H](CCCN=C(N)N)NC(=O)[C@H](CC(C)C)NC(=O)[C@H](CC(C)C)NC(=O)[C@H](Cc1c[nH]c2ccccc12)NC(=O)[C@H](Cc1c[nH]cn1)NC(=O)[C@@H]1CCCN1C(=O)[C@H](CC(C)C)NC(=O)[C@H](CC(=O)O)NC(=O)[C@@H](NC(=O)[C@H](CO)NC(=O)[C@@H](NC(=O)[C@@H]1CCCN1C(=O)[C@@H]1CCCN1C(=O)CNC(=O)[C@@H]1CCC(=O)N1)[C@@H](C)CC)[C@@H](C)CC)[C@@H](C)CC)[C@@H](C)CC)[C@@H](C)O)C(=O)O | 0.0251 | 100 | 16 | 0.408 | 100
CC[C@H](C)[C@H](NC(=O)[C@@H](NC(=O)[C@H](CC(=O)O)NC(=O)[C@H](CC(C)C)NC(=O)[C@H](CC(C)C)NC(=O)[C@H](CC(C)C)NC(=O)[C@H](CCCN=C(N)N)NC(=O)[C@H](CC(N)=O)NC(=O)[C@H](CC(N)=O)NC(=O)[C@H](C)NC(=O)[C@H](C)NC(=O)[C@H](CCC(N)=O)NC(=O)[C@H](CCC(N)=O)NC(=O)[C@H](CCCCN)NC(=O)[C@H](CCC(=O)O)NC(=O)[C@H](CCCCN)NC(=O)[C@H](CCC(=O)O)NC(=O)[C@H](CCC(N)=O)NC(=O)[C@H](CCCCN)NC(=O)[C@H](CCC(=O)O)NC(=O)[C@@H](NC(=O)[C@H](CCC(=O)O)NC(=O)[C@@H](NC(=O)[C@H](CCSC)NC(=O)[C@H](CCCCN)NC(=O)[C@H](CCCN=C(N)N)NC(=O)[C@H](CC(C)C)NC(=O)[C@H](CC(C)C)NC(=O)[C@H](CCC(N)=O)NC(=O)[C@@H](NC(=O)[C@@H]1CCCN1C(=O)[C@H](CC(C)C)NC(=O)[C@H](CC(=O)O)NC(=O)[C@@H](NC(=O)[C@H](CO)NC(=O)[C@@H](NC(=O)[C@@H]1CCCN1C(=O)[C@@H]1CCCN1C(=O)CNC(=O)[C@@H]1CCC(=O)N1)[C@@H](C)CC)[C@@H](C)CC)[C@@H](C)CC)[C@@H](C)CC)[C@@H](C)CC)[C@@H](C)O)C(=O)O | 0.0246 | 6 | > 41 | > 1 | 78
CC[C@H](C)[C@H](NC(=O)[C@@H](NC(=O)[C@H](CC(=O)O)NC(=O)[C@H](CC(C)C)NC(=O)[C@H](CC(C)C)NC(=O)[C@H](CC(C)C)NC(=O)[C@H](CCCN=C(N)N)NC(=O)[C@H](CC(N)=O)NC(=O)[C@H](CC(N)=O)NC(=O)[C@H](C)NC(=O)[C@H](C)NC(=O)[C@H](CCC(N)=O)NC(=O)[C@H](CCC(N)=O)NC(=O)[C@H](CCCCN)NC(=O)[C@H](CCC(=O)O)NC(=O)[C@H](CCCCN)NC(=O)[C@H](CCC(=O)O)NC(=O)[C@H](CCC(N)=O)NC(=O)[C@H](CCCCN)NC(=O)[C@H](CCC(=O)O)NC(=O)[C@@H](NC(=O)[C@H](CCC(=O)O)NC(=O)[C@@H](NC(=O)[C@H](CCSC)NC(=O)[C@H](CCCCN)NC(=O)[C@H](CCCN=C(N)N)NC(=O)[C@H](CC(C)C)NC(=O)[C@H](CC(C)C)NC(=O)[C@H](Cc1c[nH]c2ccccc12)NC(=O)[C@H](Cc1ccccc1)NC(=O)[C@@H]1CCCN1C(=O)[C@H](CC(C)C)NC(=O)[C@H](CC(=O)O)NC(=O)[C@@H](NC(=O)[C@H](CO)NC(=O)[C@@H](NC(=O)[C@@H]1CCCN1C(=O)[C@@H]1CCCN1C(=O)CNC(=O)[C@@H]1CCC(=O)N1)[C@@H](C)CC)[C@@H](C)CC)[C@@H](C)CC)[C@@H](C)CC)[C@@H](C)O)C(=O)O | 0.0047 | 100 | 20 | 0.0946 | 95
